Laboratory results: publication PMC3961306, “Comparison of the Cancer Gene Targeting and Biochemical Selectivities of All Targeted Kinase Inhibitors Approved for Clinical Use” (PLoS ONE, 2014)

Legend:
Test in all cases: Kinase profiling in a biochemical assay panel (mobility shift assays and ELISA), %-inhibition at 1 μM; selectivity entropy
[1] = target: panel of more than 300 wild-type and mutant kinases (313 kinase panel) (Homo sapiens, UniProt P06241)
[2] = target: panel of more than 300 wild-type and mutant kinases (313 kinase panel) (Homo sapiens, UniProt P22607, K650E)
[3] = target: panel of more than 300 wild-type and mutant kinases (313 kinase panel) (Homo sapiens, UniProt P22607, K650M)
[4] = target: panel of more than 300 wild-type and mutant kinases (313 kinase panel) (Homo sapiens, UniProt P35916)
[5] = target: panel of more than 300 wild-type and mutant kinases (313 kinase panel) (Homo sapiens, UniProt P48730)
[6] = target: panel of more than 300 wild-type and mutant kinases (313 kinase panel) (Homo sapiens, UniProt P49759)
[7] = target: panel of more than 300 wild-type and mutant kinases (313 kinase panel) (Homo sapiens, UniProt Q16512)
[8] = target: panel of more than 300 wild-type and mutant kinases (313 kinase panel) (Homo sapiens, UniProt Q16654)
[9] = target: panel of more than 300 wild-type and mutant kinases (313 kinase panel) (Homo sapiens, UniProt Q7KZI7)
[10] = target: T1, panel of more than 300 wild-type and mutant kinases (313 kinase panel) (Homo sapiens, UniProt Q9H093)
T1 sequence (Q9H093 1-628): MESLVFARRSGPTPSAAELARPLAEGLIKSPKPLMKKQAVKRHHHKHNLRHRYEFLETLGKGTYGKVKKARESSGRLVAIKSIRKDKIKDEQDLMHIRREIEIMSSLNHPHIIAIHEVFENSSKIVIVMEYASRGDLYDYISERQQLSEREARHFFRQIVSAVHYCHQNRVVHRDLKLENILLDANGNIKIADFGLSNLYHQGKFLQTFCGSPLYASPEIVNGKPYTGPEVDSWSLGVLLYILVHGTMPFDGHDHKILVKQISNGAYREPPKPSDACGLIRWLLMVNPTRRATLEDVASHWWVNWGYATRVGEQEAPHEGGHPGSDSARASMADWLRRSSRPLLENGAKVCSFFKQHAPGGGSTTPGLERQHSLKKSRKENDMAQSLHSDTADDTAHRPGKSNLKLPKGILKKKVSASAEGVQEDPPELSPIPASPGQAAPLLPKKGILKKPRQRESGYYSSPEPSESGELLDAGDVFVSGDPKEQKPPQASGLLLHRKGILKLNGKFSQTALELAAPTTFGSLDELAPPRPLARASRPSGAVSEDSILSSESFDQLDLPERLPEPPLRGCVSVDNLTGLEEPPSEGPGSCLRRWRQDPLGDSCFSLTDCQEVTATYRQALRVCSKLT

[11] = target: panel of more than 300 wild-type and mutant kinases (313 kinase panel) (Homo sapiens, UniProt Q9NYY3)
[12] = target: panel of more than 300 wild-type and mutant kinases (313 kinase panel) (Homo sapiens, UniProt Q9UBS0)
[13] = target: panel of more than 300 wild-type and mutant kinases (313 kinase panel) (Homo sapiens, UniProt Q9UK32)
[14] = target: panel of more than 300 wild-type and mutant kinases (313 kinase panel) (Homo sapiens, UniProt Q9UKE5)
[15] = target: panel of more than 300 wild-type and mutant kinases (313 kinase panel) (Homo sapiens, UniProt Q9Y5S2)
[16] = kinase FGFR3(K650E), compound at 1 μM
[17] = kinase FGFR3(K650M), compound at 1 μM

Chain of panel of more than 300 wild-type and mutant kinases (313 kinase panel) (Homo sapiens, UniProt Q9UKE5) (Q9UKE5 whole entry, change not shown): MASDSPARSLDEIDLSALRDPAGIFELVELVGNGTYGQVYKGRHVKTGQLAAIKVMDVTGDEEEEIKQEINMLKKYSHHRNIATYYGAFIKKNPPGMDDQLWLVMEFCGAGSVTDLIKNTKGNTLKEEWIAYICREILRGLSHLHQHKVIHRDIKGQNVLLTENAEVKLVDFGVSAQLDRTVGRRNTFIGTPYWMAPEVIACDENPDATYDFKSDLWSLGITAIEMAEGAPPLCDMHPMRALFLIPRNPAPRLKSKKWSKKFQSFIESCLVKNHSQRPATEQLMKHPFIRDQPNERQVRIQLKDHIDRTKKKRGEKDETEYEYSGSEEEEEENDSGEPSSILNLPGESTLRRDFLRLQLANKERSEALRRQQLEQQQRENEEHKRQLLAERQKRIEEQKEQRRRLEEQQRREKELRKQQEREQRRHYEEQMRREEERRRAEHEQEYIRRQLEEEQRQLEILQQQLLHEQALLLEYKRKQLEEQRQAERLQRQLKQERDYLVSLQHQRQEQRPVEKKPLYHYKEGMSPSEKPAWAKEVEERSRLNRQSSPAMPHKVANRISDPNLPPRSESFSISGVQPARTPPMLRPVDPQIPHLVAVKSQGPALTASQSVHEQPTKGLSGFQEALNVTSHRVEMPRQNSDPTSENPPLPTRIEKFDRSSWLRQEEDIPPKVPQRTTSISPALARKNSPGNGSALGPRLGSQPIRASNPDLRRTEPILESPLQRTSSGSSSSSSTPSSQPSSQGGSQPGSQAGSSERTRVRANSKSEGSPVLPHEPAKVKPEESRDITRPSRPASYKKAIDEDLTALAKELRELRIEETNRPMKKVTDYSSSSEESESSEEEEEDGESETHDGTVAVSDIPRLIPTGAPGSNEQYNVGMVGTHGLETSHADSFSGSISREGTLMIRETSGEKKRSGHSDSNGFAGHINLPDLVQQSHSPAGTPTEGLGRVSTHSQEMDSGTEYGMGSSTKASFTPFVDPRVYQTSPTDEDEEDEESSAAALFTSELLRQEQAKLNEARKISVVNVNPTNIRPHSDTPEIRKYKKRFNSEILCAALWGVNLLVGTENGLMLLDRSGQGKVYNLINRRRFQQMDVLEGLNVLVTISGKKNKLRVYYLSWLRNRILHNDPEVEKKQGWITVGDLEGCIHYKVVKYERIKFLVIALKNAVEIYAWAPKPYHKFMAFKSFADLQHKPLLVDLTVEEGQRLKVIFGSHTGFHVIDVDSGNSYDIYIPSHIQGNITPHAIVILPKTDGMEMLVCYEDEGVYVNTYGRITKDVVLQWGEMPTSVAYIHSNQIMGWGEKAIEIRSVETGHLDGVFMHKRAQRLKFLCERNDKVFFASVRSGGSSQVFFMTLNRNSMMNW
Chain of panel of more than 300 wild-type and mutant kinases (313 kinase panel) (Homo sapiens, UniProt P06241) (P06241 whole entry, stated change not applied): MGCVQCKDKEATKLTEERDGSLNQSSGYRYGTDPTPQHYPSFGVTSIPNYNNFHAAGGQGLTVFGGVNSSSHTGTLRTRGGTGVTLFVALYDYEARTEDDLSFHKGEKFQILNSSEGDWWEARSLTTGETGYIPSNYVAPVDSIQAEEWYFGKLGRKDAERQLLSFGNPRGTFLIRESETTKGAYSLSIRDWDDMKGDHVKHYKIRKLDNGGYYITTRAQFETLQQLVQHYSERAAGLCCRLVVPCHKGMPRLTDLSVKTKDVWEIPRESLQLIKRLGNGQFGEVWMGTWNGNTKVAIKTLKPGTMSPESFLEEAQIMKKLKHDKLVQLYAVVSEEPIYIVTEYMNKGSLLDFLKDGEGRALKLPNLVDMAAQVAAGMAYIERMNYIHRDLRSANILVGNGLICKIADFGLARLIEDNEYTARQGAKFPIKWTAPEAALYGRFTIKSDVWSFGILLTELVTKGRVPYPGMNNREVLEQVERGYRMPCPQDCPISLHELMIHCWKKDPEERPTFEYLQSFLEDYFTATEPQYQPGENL
Chain of panel of more than 300 wild-type and mutant kinases (313 kinase panel) (Homo sapiens, UniProt P49759) (P49759 whole entry, change not shown): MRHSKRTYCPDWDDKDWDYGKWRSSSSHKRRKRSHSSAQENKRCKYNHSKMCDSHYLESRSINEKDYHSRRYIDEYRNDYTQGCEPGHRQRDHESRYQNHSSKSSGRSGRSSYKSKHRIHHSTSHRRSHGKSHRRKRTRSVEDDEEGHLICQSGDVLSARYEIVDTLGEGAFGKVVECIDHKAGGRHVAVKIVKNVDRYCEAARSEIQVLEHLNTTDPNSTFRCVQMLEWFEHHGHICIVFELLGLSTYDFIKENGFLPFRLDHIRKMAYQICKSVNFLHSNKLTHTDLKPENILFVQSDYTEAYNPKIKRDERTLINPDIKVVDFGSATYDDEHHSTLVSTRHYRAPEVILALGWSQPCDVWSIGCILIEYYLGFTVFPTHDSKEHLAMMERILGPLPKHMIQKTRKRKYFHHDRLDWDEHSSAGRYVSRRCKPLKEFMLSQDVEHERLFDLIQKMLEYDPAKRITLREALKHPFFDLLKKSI
Chain of panel of more than 300 wild-type and mutant kinases (313 kinase panel) (Homo sapiens, UniProt P22607, K650E) (P22607 23-806 K650E): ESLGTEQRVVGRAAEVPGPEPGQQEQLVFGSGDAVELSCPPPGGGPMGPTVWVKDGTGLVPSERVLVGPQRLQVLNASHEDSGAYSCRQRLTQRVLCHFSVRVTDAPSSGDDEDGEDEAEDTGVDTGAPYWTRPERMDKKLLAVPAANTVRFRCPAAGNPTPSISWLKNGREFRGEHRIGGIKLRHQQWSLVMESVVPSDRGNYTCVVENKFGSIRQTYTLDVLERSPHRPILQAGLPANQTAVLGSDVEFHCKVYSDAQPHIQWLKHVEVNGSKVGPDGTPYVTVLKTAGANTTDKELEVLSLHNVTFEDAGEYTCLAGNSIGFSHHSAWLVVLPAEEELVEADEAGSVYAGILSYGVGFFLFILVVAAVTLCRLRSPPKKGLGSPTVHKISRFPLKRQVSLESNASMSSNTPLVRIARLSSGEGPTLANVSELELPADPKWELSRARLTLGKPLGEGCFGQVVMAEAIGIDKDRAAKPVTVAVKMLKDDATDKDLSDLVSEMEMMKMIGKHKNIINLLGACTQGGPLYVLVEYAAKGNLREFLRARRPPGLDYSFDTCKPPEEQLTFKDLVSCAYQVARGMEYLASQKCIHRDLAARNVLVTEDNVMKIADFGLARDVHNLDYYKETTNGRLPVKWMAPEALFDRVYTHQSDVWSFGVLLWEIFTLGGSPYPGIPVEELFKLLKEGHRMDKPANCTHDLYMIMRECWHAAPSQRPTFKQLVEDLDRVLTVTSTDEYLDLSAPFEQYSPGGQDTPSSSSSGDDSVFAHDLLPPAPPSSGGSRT
Chain of panel of more than 300 wild-type and mutant kinases (313 kinase panel) (Homo sapiens, UniProt P22607, K650M) (P22607 23-806 K650M): as the sequence (P22607 23-806 K650E) above, with E628M counted along it
Chain of panel of more than 300 wild-type and mutant kinases (313 kinase panel) (Homo sapiens, UniProt Q9UK32) (Q9UK32 whole entry, change not shown): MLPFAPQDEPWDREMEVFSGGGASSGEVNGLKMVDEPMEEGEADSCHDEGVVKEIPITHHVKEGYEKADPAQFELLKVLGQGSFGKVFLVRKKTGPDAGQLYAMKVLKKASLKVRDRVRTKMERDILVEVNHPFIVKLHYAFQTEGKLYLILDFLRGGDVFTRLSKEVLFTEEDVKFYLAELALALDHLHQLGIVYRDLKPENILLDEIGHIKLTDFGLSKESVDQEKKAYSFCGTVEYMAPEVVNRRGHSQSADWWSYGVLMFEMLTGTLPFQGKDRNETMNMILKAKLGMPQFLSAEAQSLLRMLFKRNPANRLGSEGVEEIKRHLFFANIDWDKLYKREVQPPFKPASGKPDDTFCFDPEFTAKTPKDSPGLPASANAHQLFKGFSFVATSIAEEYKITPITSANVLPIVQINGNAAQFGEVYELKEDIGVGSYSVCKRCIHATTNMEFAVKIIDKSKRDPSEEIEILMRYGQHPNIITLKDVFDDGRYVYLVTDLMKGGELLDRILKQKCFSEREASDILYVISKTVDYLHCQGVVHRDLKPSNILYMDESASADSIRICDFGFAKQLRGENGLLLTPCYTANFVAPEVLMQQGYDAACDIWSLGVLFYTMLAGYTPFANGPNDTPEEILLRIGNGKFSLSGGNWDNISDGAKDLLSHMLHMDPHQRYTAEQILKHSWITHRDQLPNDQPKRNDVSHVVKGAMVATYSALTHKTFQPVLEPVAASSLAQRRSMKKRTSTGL

Row | Compound | %-inhibition of FYN ([1]; kinase FYN, compound at 1 μM) [%] | %-inhibition of FGFR3(K650E) [2, 16] [%] | %-inhibition of FGFR3(K650M) [3, 17] [%] | %-inhibition of FLT4 ([4]; kinase FLT4, compound at 1 μM) [%] | %-inhibition, CK1δ ([5]; kinase CK1δ, 1 μM compound) [%] | %-inhibition, CLK1 ([6]; kinase CLK1, 1 μM compound) [%] | %-inhibition of PKN1 ([7]; kinase PKN1, 1 μM) [%] | %-inhibition of PDHK4 ([8]; kinase PDHK4, 1 μM) [%] | %-inhibition of MARK2 ([9]; kinase MARK2, compound at 1 μM) [%] | %-inhibition of NuaK2 ([10]; kinase NuaK2, 1 μM) [%] | %-inhibition of PLK2 ([11]; kinase PLK2, 1 μM) [%] | %-inhibition of p70S6Kβ ([12]; kinase p70S6Kβ, 1 μM) [%] | %-inhibition of RSK4 ([13]; kinase RSK4, 1 μM) [%] | %-inhibition of TNIK ([14]; kinase TNIK, 1 μM) [%] | %-inhibition of MRCKβ ([15]; kinase MRCKβ, 1 μM) [%] | other results
1 | COc1cc2nccc(Oc3ccc(NC(=O)C4(C(=O)Nc5ccc(F)cc5)CC4)cc3)c2cc1OC [cabozantinib] | 91 | 26 | 10 | 100 | 0.0601 | 7 | 2.13 | 3.76 | -4 | 1.63 | 4.4 | -3.52 | -3.65 | 16 | -3 | –
2 | C[C@@H](Oc1cc(-c2cnn(C3CCNCC3)c2)cnc1N)c1c(Cl)ccc(F)c1Cl [crizotinib] | 42 | 52 | 61 | 48 | 9 | 13 | 23 | -3.76 | 26 | 87 | 1.1 | 6 | -1.58 | 11 | -2 | –
3 | CC(C)(C)c1nc(-c2cccc(NS(=O)(=O)c3c(F)cccc3F)c2F)c(-c2ccnc(N)n2)s1 [dabrafenib] | – | 5 | 7 | 85 | 8.51 | 7 | -2.84 | -1 | 2.85 | 4.53 | -4.64 | -0.554 | 2.2 | 15 | -2.85 | –
4 | C#Cc1cccc(Nc2ncnc3cc(OCCOC)c(OCCOC)cc23)c1 [erlotinib] | – | – | – | – | – | – | – | – | – | – | – | – | – | – | – | %-inhibition of FYN ([1]; 1 µM): 34%; %-inhibition of FGFR3(K650E) ([2]; 1 µM): 80%; %-inhibition of FGFR3(K650M) ([3]; 1 µM): 87%; %-inhibition of FLT4 ([4]; 1 µM): 75%; %-inhibition, CK1δ ([5]; 1 µM): -4%; %-inhibition, CLK1 ([6]; 1 µM): 21%; %-inhibition of PKN1 ([7]; 1 µM): 2.76%; %-inhibition of PDHK4 ([8]; 1 µM): -9%; %-inhibition of MARK2 ([9]; 1 µM): 7%; %-inhibition of NuaK2 ([10]; 1 µM): -0.531%; %-inhibition of PLK2 ([11]; 1 µM): -3.59%; %-inhibition of p70S6Kβ ([12]; 1 µM): 13%; %-inhibition of RSK4 ([13]; 1 µM): 8%; %-inhibition of TNIK ([14]; 1 µM): 34%; %-inhibition of MRCKβ ([15]; 1 µM): -4%
5 | CO[C@H]1C[C@@H]2CC[C@@H](C)[C@@](O)(O2)C(=O)C(=O)N2CCCC[C@H]2C(=O)O[C@H]([C@H](C)C[C@@H]2CC[C@@H](OCCO)[C@H](OC)C2)CC(=O)[C@H](C)/C=C(\C)[C@@H](O)[C@@H](OC)C(=O)[C@H](C)C[C@H](C)/C=C/C=C/C=C/1C [everolimus] | -0.928 | -4.55 | 2.71 | -0.439 | -4.27 | -7.39 | 2.6 | 2 | -6 | -0.726 | 1.38 | -11 | -8 | -3 | 0.688 | –
6 | CS(=O)(=O)CCNCc1ccc(-c2ccc3ncnc(Nc4ccc(OCc5cccc(F)c5)c(Cl)c4)c3c2)o1 [lapatinib] | 1.29 | 0.415 | 1.23 | -2.21 | – | 14 | 0 | -4.31 | 10 | -1.19 | -4 | 8 | – | 25 | -5 | %-inhibition, CK1δ ([5]; 1 µM): -3.34%; %-inhibition of RSK4 ([13]; 1 µM): 2.39%
7 | Cc1cn(-c2cc(NC(=O)c3ccc(C)c(Nc4nccc(-c5cccnc5)n4)c3)cc(C(F)(F)F)c2)cn1 [nilotinib] | 59 | -37 | -21 | 17 | -17 | 81 | 13 | -4.31 | 0.732 | – | – | -3.7 | 11 | 11 | -10 | %-inhibition of NuaK2 ([10]; 1 µM): -44%; %-inhibition of PLK2 ([11]; 1 µM): 6%
